Measured values published in patent US20030032674A1, “Use of unsaturated fatty acids to treat severe inflammatory diseases” (priority 2001, published 2003).

Key:
[1] = tested on: IL-1α expression; assay: IL-1α immunoblot in RAW 264.7 cells; format: cell-based, murine; conditions: lauric acid 1, 10, 50, 100 μM with BSA, 11 h
Description: Cell culture—RAW 264.7 cells (a murine macrophage-like cell line, ATCC TIB-71), 293T cells (a human embryonic kidney cell line, provided by Sam Lee, Beth Israel Hospital. Boston, Mass.), and HT-29 cells (a human colon adenocarcinoma cell line, ATCC HTB-38) were cultured in Dulbecco's modified Eagle's medium (DMEM) containing 10% (v/v) heat-inactivated fetal bovine serum (FBS, Intergen) and 100 units/ml Penicillin and […] Streptomycin (GIBCO-BRL) at 37° C. in a 5% CO2/air environment. Cells (2×10^6) were plated in 60-mm dishes and cultured for an additional 18 hours to allow the number of cells to approximately double. Cells were maintained in serum-poor (0.25% FBS) medium for another 18 hours prior to the treatment with indicated reagents.
Preparation of fatty acids-albumin complexes—All fatty acids were solubilized in ethanol, and then combined with fatty acid-free and low-endotoxin BSA at a molar ratio of 10:1 (fatty acid: albumin) in serum-poor medium (0.25% FBS). […]
After 11 h, cell lysates were analyzed by COX-2, iNOS, IL-1α, or GAPDH immunoblot using a Western blot analysis.
RAW 264.7 cells were pretested with various concentrations (5, 10, 20, and 50 μM) of docosahexaenoic acid (C22:6n-3) for 3 hours, and then stimulated with LPS (100 ng/ml) for 8 hours and analyzed by COX-2, iNOS, IL-1 a or GAPDH immunoblot.

[2] = tested on: COX-2 promoter; assay: COX-2 promoter luciferase reporter, stably transfected RAW 264.7 cells, TLR agonist-induced; format: cell-based, murine; conditions: pretreated 3 hrs
Description: Preparation of stably transfected cells with luciferase reporter plasmids. RAW 264.7 cells (1×10^6 cells) were plated in 100 mm dish and transfected with murine COX-2 promoter (−3.2 kb) luciferase plasmid using Superfect Transfection reagent (Qiagen) according to the manufacturer's instruction. pcDNA3/neo was co-transfected to select transfected cells using the antibiotic. After 48 hrs of stabilization, the new media containing Geneticin (500 μg/ml) was added and changed for appropriate time periods. Two weeks later, the colonies that survived were selected and propagated under Geneticin. After another two weeks of antibiotic selection, the luciferase activities were determined for each colony after treatment with LPS (100 ng/ml).
These stably transfected cell lines eliminated the necessity of transfecting plasmids for the reporter gene and the internal control. Thus, inhibitory or stimulatory effects of various fatty acids on agonist-induced TLR activation were quantitatively determined in a high throughput mode using 96 well plates. […] Therefore, NFκB activation and COX-2 expression was used as readouts for agonist-induced TLR activation, and its suppression or potentiation by fatty acids in this experiment. […]
(FIG. 10A). […] After 8 hrs, luciferase activities were determined. Data are expressed as a percentage of PamCAG treatment alone.

## CCCCCCCCCCCC(=O)O [lauric acid]
[1]
  IL-1α expression induced by fatty acid (immunoblot): induced
[2]; LPS 200 ng/ml 8 hrs
  effect on LPS-induced COX-2 expression (reporter gene): potentiated
[2]; PamCAG 500 ng/ml 8 hrs
  effect on PamCAG-induced COX-2 expression: potentiated
